Like-named read-outs stand apart in the source and are kept apart here.
How the values were obtained:
[1] = test system: IL-10 secretion by OCI-LY3 ABC-DLBCL cells; experiment: IL-10 secretion assay (MesoScale Discovery); assay type: cell-based; conditions: Homo sapiens; supernatants of OCI-LY3 cells, 16 independent experiments
Method: (§1) NF-κB signaling regulates the secretion of multiple cytokines, including interleukin (IL)-6 and IL-10. Libermann T A et al. Mol Cell Biol. 1990; 10(6):3155-3162; and Cao S, et al. J Biol Chem. 2006; 281(36):26041-26050. Secretion of the cytokines IL-6 and IL-10 by OCI-LY3 ABC-DLBCL cells was measured using a MesoScale Discovery (MSD) assay.

[2] = test system: MALT1 substrate BCL10; experiment: BCL10 Mesoscale assay of OCI-LY3 tumor samples after a single dose; assay type: in vivo, NSG mice; conditions: OCI-LY3 tumors
Method: MALT1 protease activity results in the cleavage of negative regulators of the classical NF-κB pathway such as A20, CYLD, RelB, and BCL10. […] The assay measures un-cleaved BCL10 which is increased upon MALT1 inhibition. OCI-LY3 or OCI-LY10 tumors were crushed before lysis in Mammalian Protein Extraction Reagent buffer for 30 minutes at 4° C. Centrifugation of the lysate was done and supernatant kept for analysis in the MSD assay. MSD plates (small spot, goat anti-rabbit coated, MSD L45RA-1) were blocked for 1 hour with 3% Bovine serum Albumin (in Tris-buffered saline, 0.1% Tween 20) and labeled with BCL10 antibody (Abcam #33905) to capture the uncleaved BCL10. 25 μg of tumor lysates were transferred to the BCL 10-labeled MSD plate and incubated for 24 hours at 4° C. followed by 2-hour incubation with BCL10 antibody detecting cleaved/uncleaved BCL10 (ab93022) and 2-hour antibody detection. Plates were read on a SECTOR imager.
As a more direct PD readout, OCI-LY3 tumor samples were analyzed by a BCL 10 Mesoscale assay, looking for cleavage inhibition of the MALT1 substrate BCL10. The assay measures uncleaved BCL10 in tumor.
Tumor uncleaved BCL10 levels are graphed as the mean+SD.
For PD, when tumors reached 550-750 mm^3 animals were assigned randomly into the treatment groups and treated as presented in Table 5. Dose volumes were adjusted to individual body weights at 10 mL/kg. […]

[3] = test system: phosphorylation of IκBα in OCI-LY3 cells; conditions: unstimulated conditions
Source text: The phospho-IκBα (pIκBα) signal was quantified as percent of DMSO control and normalized against β-tubulin.

[4] = Serum and tumor levels after multiple oral doses in male OCI-LY3 tumor-bearing NSG mice; assay type: in vivo; conditions: mean (SD); for concentration at 7 h / concentration at 12 h / concentration at 4 h / concentration at 24 h / Kp at 12 h / Kp at 24 h: male, NSG, mouse; for concentration at 7 h: 7 h post dose; for Kp at 12 h: Day 5, 12 h post dose, read-out: Tumor: serum ratio; for Kp at 24 h: read-out: Tumor:serum ratio
Method: Serum samples were collected at 7 and 12 hours post dose and tumor samples were collected 12 hours post last dose from the twice-daily-treated animals. From once-daily-treated animals, serum samples were collected at 4, 12, and 24 hours post dose and tumor samples were collected at 24 hours post last dose.

[5] = test system: T cells derived from healthy donors; experiment: CyTOF analysis of T cells stimulated with CD3/28; assay type: cell-based, human
Source text: After fixation and barcoding, samples were pooled per donor and stained using a panel of 32 metal-labelled antibodies for identification of phenotype and function of immune cell populations and acquired on a CyTOF® C5 system. After debarcoding and normalization, cell populations were either manually gated or clustered by spanning-tree progression of density-normalized events (SPADE) analysis using Cytobank® software.
These observations are consistent with the fluorescence-activated cell sorting (FACS) analysis data.

[6] = test system: IL-6 secretion by OCI-LY3 ABC-DLBCL cells; experiment: IL-6 secretion assay (MesoScale Discovery); assay type: cell-based; conditions: Homo sapiens; supernatants of OCI-LY3 cells, 16 independent experiments
Method: as §1

[7] = test system: human cytokine IL-10 in serum; experiment: Serum IL-10 (MSD assay) after a single dose in OCI-LY3 tumor-bearing NSG mice; assay type: in vivo
Method: NF-κB signaling regulates the secretion of multiple cytokines, including interleukin-10 (IL-10). MALT1 inhibition results in a decrease of IL-10 transcription and translation as well as secretion. Levels of the human cytokine IL-10 were measured in the serum of OCI-LY3 or OCI-LY10 ABC-DLBCL tumor bearing mice using a Mesoscale Discovery assay (MSD). 25 μL of mouse serum was transferred to an MSD plate (V-Plex Proinflammation Panel I (human) kit) and incubated together with 25 μL diluent 2 (MSD; R51BB-3) for 2 hours at RT followed by a 2-hour incubation with IL-10 antibody solution. Plates were read on a SECTOR imager. Serum human IL-10 levels were correlated to serum compound concentration.
Serum IL-10 levels are graphed as the mean+/−SD.
For PD, when tumors reached 550-750 mm^3 animals were assigned randomly into the treatment groups and treated as presented in Table 5. Dose volumes were adjusted to individual body weights at 10 mL/kg. For both PD studies, serum was collected at 2 and 12 hours post treatment from the retro-orbital sinus. At 24 hours post treatment, animals were bled via decapitation and tumors were excised, weighed, and divided for bioanalysis and ex vivo PD analysis. Blood was centrifuged at 10,000 rpm and serum divided for bioanalysis and PD analysis.

Structure (SMILES): O=C(Nc1ccnc(C(F)(F)F)c1)c1cnn(-c2cccc3c(=O)[nH]ccc23)c1C(F)(F)F [Compound A, 1-(1-oxo-1,2-dihydroisoquinolin-5-yl)-5-(trifluoromethyl)-N-[2-(trifluoromethyl)pyridin-4-yl]-1H-pyrazole-4-carboxamide]
- IC50 [1]: 0.077 ± 0.024 µM
- dose giving maximum levels of uncleaved BCL10 [2]: ≥ 10 mg/kg
- fraction of uncleaved BCL10 in tumor [2]: dose-dependently increased the fraction of uncleaved BCL10
- inhibition of phospho-IκBα [3]: did not inhibit phospho-IκBα
- Serum concentration ([4]; 10 mg/kg twice daily PO, Day 5 eight doses given, 12 h post dose (trough)): 2,202 (313) ng/ml
- concentration at 7 h ([4]; serum, oral, 10 mg/kg, 10 mg/kg twice daily PO, Day 1 following first dose): 3.26 µg/mL
- concentration at 12 h ([4]; serum, oral, 10 mg/kg, 10 mg/kg twice daily PO, Day 1 following first dose, 12 h post dose, read-out: Serum concentration): 2.44 µg/mL
- concentration at 7 h ([4]; serum, oral, 10 mg/kg, 10 mg/kg twice daily PO, Day 4 seven doses given): 3.76 µg/mL
- concentration at 12 h ([4]; serum, oral, 10 mg/kg, 10 mg/kg twice daily PO, Day 5 eight doses given, 12 h post dose (trough), read-out: Serum concentration): 2.2 µg/mL
- concentration at 7 h ([4]; serum, oral, 30 mg/kg, 30 mg/kg twice daily PO, Day 1 following first dose): 9.97 µg/mL
- concentration at 12 h ([4]; serum, oral, 30 mg/kg, 30 mg/kg twice daily PO, Day 1 following first dose, 12 h post dose, read-out: Serum concentration): 9 µg/mL
- concentration at 7 h ([4]; serum, oral, 30 mg/kg, 30 mg/kg twice daily PO, Day 4 seven doses given): 7.42 µg/mL
- concentration at 12 h ([4]; serum, oral, 30 mg/kg, 30 mg/kg twice daily PO, Day 5 eight doses given, 12 h post dose, read-out: Serum concentration): 3.89 µg/mL
- concentration at 7 h ([4]; serum, oral, 100 mg/kg, 100 mg/kg twice daily PO, Day 1 following first dose): 16.2 µg/mL
- concentration at 12 h ([4]; serum, oral, 100 mg/kg, 100 mg/kg twice daily PO, Day 1 following first dose, 12 h post dose, read-out: Serum concentration): 13.3 µg/mL
- concentration at 12 h ([4]; serum, oral, 100 mg/kg, 100 mg/kg twice daily PO, Day 5 eight doses given, 12 h post dose, read-out: Serum concentration): 6.91 µg/mL
- concentration at 4 h ([4]; serum, oral, once daily PO, dose not printed in Table 8 (first group; b301: 60 and 100 mg/kg), Day 1, 4 h post dose): 15 µg/mL
- concentration at 4 h ([4]; serum, oral, once daily PO, dose not printed in Table 8 (second group; b301: 60 and 100 mg/kg), Day 1, 4 h post dose): 18.1 µg/mL
- concentration at 24 h ([4]; serum, po, once daily PO, dose not given (first group), Day 1, 24 h post dose, read-out: Serum concentration): 2.06 µg/mL
- concentration at 4 h ([4]; serum, po, once daily PO, dose not given (first group), Day 4, 4 h post dose): 9.85 µg/mL
- concentration at 12 h ([4]; serum, po, once daily PO, dose not given (first group), Day 4, 12 h post dose, read-out: Serum concentration): 8.68 µg/mL
- concentration at 24 h ([4]; serum, po, once daily PO, dose not given (first group), Day 4, 24 h post dose, read-out: Serum concentration): 1.38 µg/mL
- concentration at 24 h ([4]; serum, po, once daily PO, dose not given (second group), Day 1, 24 h post dose, read-out: Serum concentration): 1.97 µg/mL
- concentration at 4 h ([4]; serum, po, once daily PO, dose not given (second group), Day 4, 4 h post dose): 12.6 µg/mL
- concentration at 12 h ([4]; serum, po, once daily PO, dose not given (second group), Day 4, 12 h post dose, read-out: Serum concentration): 11 µg/mL
- concentration at 24 h ([4]; serum, po, once daily PO, dose not given (second group), Day 4, 24 h post dose, read-out: Serum concentration): 2.8 µg/mL
- Kp at 12 h ([4]; tumor and serum, 10 mg/kg twice daily PO): 1
- Kp at 12 h ([4]; tumor and serum, 30 mg/kg twice daily PO): 1.3
- Kp at 12 h ([4]; tumor and serum, 100 mg/kg twice daily PO): 1.3
- Kp at 24 h ([4]; tumor and serum, once daily PO, dose not given (first group), Day 4, 24 h post dose): 1.9
- concentration at 12 h ([4]; tumor, oral, 10 mg/kg, 10 mg/kg twice daily PO, Day 5 eight doses given, 12 h post dose, read-out: Tumor concentration): 2160 ng/g
- concentration at 12 h ([4]; tumor, oral, 30 mg/kg, 30 mg/kg twice daily PO, Day 5 eight doses given, 12 h post dose, read-out: Tumor concentration): 5050 ng/g
- concentration at 12 h ([4]; tumor, oral, 100 mg/kg, 100 mg/kg twice daily PO, Day 5 eight doses given, 12 h post dose, read-out: Tumor concentration): 8830 ng/g
- concentration at 24 h ([4]; tumor, po, once daily PO, dose not given (first group), Day 4, 24 h post dose, read-out: Tumor concentration): 2460 ng/g
- concentration at 24 h ([4]; tumor, po, once daily PO, dose not given (second group), Day 4, 24 h post dose, read-out: Tumor concentration): 4300 ng/g
- Kp at 24 h ([4]; tumor/serum, once daily PO, dose not given (second group), Day 4, 24 h post dose): 1.6
- generation of Treg cells following CD3/28 stimulation ([5]; 4 days, CyTOF): dose-dependently inhibited the generation of CD4^+CD25^+CD1271^lowFoxP3^hi cells
- number of CD8+ T cells ([5]; 4 days, CyTOF): no strong effect on the number of CD8^+ T cells was observed
- expression of TIM3 ([5]; CD4+ and CD8+ T cells, CyTOF): No decrease
- expression of exhaustion markers PD-1, CTLA4, LAG3 ([5]; CD8+ T cells, CyTOF): decreased on CD8^+ T cells
- activation of CD8+ T cells ([5]; CD69+CD25+ cells following CD3/28 stimulation): reduced
- IC50 [6]: 0.114 ± 0.041 µM
- inhibition or reduction of serum IL-10 ([7]; single dose 10 mg/kg, 12 hours post dose): intermediate inhibition or reduction
- inhibition or reduction of serum IL-10 ([7]; single dose 30 mg/kg, 12 hours post dose): completely inhibited or reduced serum IL-10
- inhibition or reduction of serum IL-10 ([7]; single dose 100 mg/kg, 12 hours post dose): completely inhibited or reduced serum IL-10
- inhibition or reduction of serum IL-10 ([7]; single dose, 24 hours post dose): lost at 24 hours post dose

From patent US20240299376A1, “METHOD OF TREATING A CONDITION USING A […] EFFECTIVE DOSE OF 1-(1-OXO-1,2-DIHYDROISOQUINOLIN-5-YL)-5-(TRIFLUOROMETHYL)-N-(2-(TRIFLUOROMETHYL)PYRIDIN-4-YL)-1H-PYRAZOLE-4-CARBOXAMIDE” (Janssen Pharmaceutica NV, priority 2021, published 2024)
